According to patent US20060057696A1, “Sugar chain synthases” (priority 2002, published 2006):

Key:
[1] = molecular target: T1, PA-mST8Sia VI (mouse ST8Sia VI) (Mus musculus, UniProt Q8K4T1); experiment: Sialyltransferase activity of PA-mST8Sia VI toward acceptor substrates; assay type: biochemical; conditions: for Relative rate (%) Mouse ST8SiaVI: incorporation with Fetuin taken as 100, substrate 0.5 mg/ml glycolipids, 1 mg/ml glycoproteins, monosaccharides and oligosaccharides
T1 construct: amino acids 26-398 in the case of mouse ST8Sia VI; signal peptide of mouse immunoglobulin IgM (N); made in house; host or cells: COS-7 cells, transient expression of pcDSA-mST8Sia VI; protein recovered from medium on IgG-Sepharose
T1 sequence (Q8K4T1 26-398): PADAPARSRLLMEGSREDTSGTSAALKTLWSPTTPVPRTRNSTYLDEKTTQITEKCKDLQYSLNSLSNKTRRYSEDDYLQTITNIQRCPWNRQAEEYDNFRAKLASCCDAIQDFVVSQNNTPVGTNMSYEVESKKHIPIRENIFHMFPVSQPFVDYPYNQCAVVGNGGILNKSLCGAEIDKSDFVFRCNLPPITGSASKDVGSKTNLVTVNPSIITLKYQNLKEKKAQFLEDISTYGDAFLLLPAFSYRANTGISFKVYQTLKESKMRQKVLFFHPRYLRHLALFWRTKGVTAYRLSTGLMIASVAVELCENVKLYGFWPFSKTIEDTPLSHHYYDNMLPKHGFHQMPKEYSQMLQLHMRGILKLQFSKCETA
Method: (§1) Using each expression vector and lipofectamine (Invitrogen), transient expression was carried out in COS-7 cells (Kojima, N. et al. (1995) FEBS Lett. 360, 1-4). The proteins of the present invention secreted from the cells into which each expression vector had been introduced were named as PA-mST8Sia VI (mouse) and PA-hST8Sia VI (human). PA-mST8Sia VI and PA-hST8Sia VI were adsorbed to IgG-Sepharose (Amersham Pharmacia Biotech), and were then recovered from medium. Sialyltransferase activity was measured as follows according to the method of Lee et al. (Lee, Y.-C. et al. (1999) J. Biol. Chem. 274, 11958-11967). A reaction solution (10 μl) containing 50 mM MES buffer (pH 6.0), 1 mM MgCl2, 1 mM CaCl2, 0.5% Triton CF-54, 100 μM CMP-[^14C]-NeuAc, a glycoconjugate (which was added at 0.5 mg/ml in the case of glycolipids, and at 1 mg/ml in the case of glycoproteins or oligosaccharides), and a PA-mST8Sia VI or PA-hST8Sia VI suspension, was incubated at 37° C. for 3 to 20 hours. Thereafter, in the case of glycolipids, the reaction product was purified with a C-18 column (Sep-Pak Vac 100 mg; Waters) and the purified product was used as a sample, and in the case of oligosaccharides or glycoproteins, the reaction product was directly used as a sample. Thus, the obtained samples were subjected to analysis. In the case of oligosaccharides or glycolipids, the sample was spotted on a silica gel 60 HPTLC plate (Merck), and was then developed with a developing solvent consisting of ethanol:pyridine:n-butanol:water:acetic acid=100:10:10:30:3 (for oligosaccharides), a developing solvent consisting of 1-propanol:ammonia water:water=6:1:2.5 (for oligosaccharides), or a developing solvent consisting of chloroform:methanol: 0.02% CaCl2=55:45:10 (for glycolipids). In the case of glycoproteins, analysis was carried out by SDS-polyacrylamide gel electrophoresis. The obtained radioactivities were visualized with a BAS2000 radio image analyzer (Fuji Film) and then quantified.

[2] = molecular target: T2, PA-hST8Sia VI (human ST8Sia VI) (Homo sapiens, UniProt P61647, L267F); experiment: Sialyltransferase activity of PA-hST8Sia VI toward acceptor substrates; assay type: biochemical; conditions: incorporation with Fetuin taken as 100, substrate 0.5 mg/ml glycolipids, 1 mg/ml glycoproteins, monosaccharides and oligosaccharides
T2 construct: amino acids 68-398 in the case of human ST8Sia VI; signal peptide of mouse immunoglobulin IgM (N); made in house; host or cells: COS-7 cells, transient expression of pcDSA-hST8Sia VI; protein recovered from medium on IgG-Sepharose
T2 sequence (P61647 68-398 L267F): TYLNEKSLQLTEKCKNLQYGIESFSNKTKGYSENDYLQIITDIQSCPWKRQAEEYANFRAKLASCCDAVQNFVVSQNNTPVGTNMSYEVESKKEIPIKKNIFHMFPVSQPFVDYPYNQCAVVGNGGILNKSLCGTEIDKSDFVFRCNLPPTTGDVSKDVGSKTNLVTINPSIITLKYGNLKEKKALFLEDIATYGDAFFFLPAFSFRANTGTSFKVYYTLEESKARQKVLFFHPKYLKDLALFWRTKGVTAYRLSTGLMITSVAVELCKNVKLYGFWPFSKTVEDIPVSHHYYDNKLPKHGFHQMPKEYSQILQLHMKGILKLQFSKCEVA
Method: as §1

Relative rate (%) Mouse ST8SiaVI [1] [%]	Relative rate (%) Human ST8Sia VI [2] [%]	activity of PA-mST8Sia VI on the substrate (in words) [1]	Compound
1.1	2.2	showed activity	NeuAcα2,8Galβ1,3GalNAcβ1,4(NeuAcα2,8NeuAcα2,3)Galβ1,4Glcβ1-Cer [GT1b]
0	0	–	NeuAcα2,8NeuAcα2,8Galβ1,3GalNAcβ1,4(NeuAcα2,8NeuAcα2,3)Galβ1,4Glcβ1-Cer [GQ1b]

Second part, the compound before the results:

Compound	Relative rate (%) Mouse ST8SiaVI [1] [%]	Relative rate (%) Human ST8Sia VI [2] [%]	activity of PA-mST8Sia VI on the substrate (in words) [1]
CC(=O)N[C@H]1[C@H]([C@H](O)[C@H](O)CO)O[C@@](O[C@H]2[C@@H](O)[C@@H](CO)O[C@@H](O[C@H]3[C@H](O)[C@@H](O)C(O)O[C@@H]3CO)[C@@H]2O)(C(=O)O)C[C@@H]1O (some centres unmarked) [3′-Sialyllactose, NeuAcα2,3Galβ1,4Glc]	629	69.9	–
CC(=O)NC1C(O)CC(OCC2OC(OC3C(CO)OC(O)C(O)C3O)C(O)C(O)C2O)(C(=O)O)OC1C(O)C(O)CO (centres unmarked) [6′-Sialyllactose, NeuAcα2,6Galβ1,4Glc]	91.5	10.7	–
NeuAcα2,3Galβ1,3GalNAcβ1,4(NeuAca2,3)Galβ1,4Glcβ1-Cer [GD1a]	6.0	1.8	showed activity
NeuAcα2,8NeuAcα2,3Galβ1,4Glcβ1-Cer [GD3]	0	0	–
